Values of other authors in patent US7785824B2, “Hydrolysed casein product comprising tripeptides IPP and/or VPP” (Conopco Inc., priority 2003, dated 2010).

How the values were obtained:
[1] = test system: hypertensive humans; details: in sour milk, placebo-controlled study
[2] = target: Angiotensin I Converting Enzyme (ACE) (Homo sapiens, UniProt P12821); details: concentration which results in 50% inhibition of the ACE activity
Sequence of Angiotensin I Converting Enzyme (ACE) (P12821 30-1306, species assumed): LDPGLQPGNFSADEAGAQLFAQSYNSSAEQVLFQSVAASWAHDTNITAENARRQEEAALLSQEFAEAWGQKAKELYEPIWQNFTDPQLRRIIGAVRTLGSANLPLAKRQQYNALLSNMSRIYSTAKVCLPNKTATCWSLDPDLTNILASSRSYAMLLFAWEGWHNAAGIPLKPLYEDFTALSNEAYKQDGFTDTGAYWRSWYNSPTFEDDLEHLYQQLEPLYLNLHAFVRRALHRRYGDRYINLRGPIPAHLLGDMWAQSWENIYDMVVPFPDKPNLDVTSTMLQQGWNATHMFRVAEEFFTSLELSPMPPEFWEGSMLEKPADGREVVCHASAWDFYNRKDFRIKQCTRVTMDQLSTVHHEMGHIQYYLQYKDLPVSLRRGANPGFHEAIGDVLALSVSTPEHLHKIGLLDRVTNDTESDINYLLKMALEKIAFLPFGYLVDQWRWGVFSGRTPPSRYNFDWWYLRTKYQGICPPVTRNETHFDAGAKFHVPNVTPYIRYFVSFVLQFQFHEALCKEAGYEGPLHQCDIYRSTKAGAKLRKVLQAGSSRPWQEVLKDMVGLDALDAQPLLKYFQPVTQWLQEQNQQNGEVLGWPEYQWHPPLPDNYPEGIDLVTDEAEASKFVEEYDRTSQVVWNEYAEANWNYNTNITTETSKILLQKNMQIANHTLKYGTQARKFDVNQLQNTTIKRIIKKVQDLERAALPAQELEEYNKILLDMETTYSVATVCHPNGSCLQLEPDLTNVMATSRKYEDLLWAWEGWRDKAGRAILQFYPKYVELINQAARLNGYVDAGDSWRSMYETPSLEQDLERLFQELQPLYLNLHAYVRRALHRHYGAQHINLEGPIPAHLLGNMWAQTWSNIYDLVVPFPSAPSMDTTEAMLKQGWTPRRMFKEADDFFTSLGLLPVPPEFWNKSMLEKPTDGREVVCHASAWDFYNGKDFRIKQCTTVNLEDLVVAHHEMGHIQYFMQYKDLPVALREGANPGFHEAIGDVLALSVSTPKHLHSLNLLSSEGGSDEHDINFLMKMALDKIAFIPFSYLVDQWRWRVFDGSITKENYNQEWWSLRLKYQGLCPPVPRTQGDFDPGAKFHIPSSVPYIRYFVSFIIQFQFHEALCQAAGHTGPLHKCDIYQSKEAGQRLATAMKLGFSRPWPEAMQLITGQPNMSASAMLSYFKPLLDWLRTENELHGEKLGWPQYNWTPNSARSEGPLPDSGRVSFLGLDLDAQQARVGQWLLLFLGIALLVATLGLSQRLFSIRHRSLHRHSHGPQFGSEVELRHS

Row | Substance | blood pressure lowering effect [1] | IC50 [2] [µM]
1 | Ile-Pro-Pro [IPP] | blood pressure lowering effect | 5
2 | Leu-Pro-Pro [LPP] | – | 9.6
3 | Val-Pro-Pro [VPP] | blood pressure lowering effect | 9
